In US9464064B2, “HCV helicase inhibitors and methods of use thereof” (University of Kansas, priority 2011, dated 2016):
Read-outs that look alike come from different tables or passages of the source.

Assays:
NS3h_2a(JFH1) = biological target: T1, NS3h_2a(JFH1) (Hepatitis C virus genotype 2a, UniProt Q99IB8); assay: MBHA, DNA substrate, genotype 2a helicase; assay type: biochemical, hepatitis C virus genotype 2a(JFH1)
T1 construct: truncated C-terminally His-tagged NS3 proteins lacking the N-terminal protease, called NS3h; His-tag (C); made in house
Description: All oligonucleotides were purchased from Integrated DNA Technologies (IDT, Coralville, Iowa). Primuline derivatives were synthesized and purified as described herein. Three different NS3 proteins were used in this study. Two were truncated C-terminally His-tagged NS3 proteins lacking the N-terminal protease, called NS3h, the third was a full-length NS3 with the portion of NS4A needed for protease activation fused to its N-terminus, called scNS4A-NS3 (Howe, et al. (1999) Protein Sci. 8:1332-41), and the fourth was a 23 kDa scNS4A-NS3 protease fragment lacking the helicase domains, called scNS4A-NS3p (Protein One, Rockville, Md.). NS3h was expressed from two different HCV strains. NS3h_1b(con1) was from the con1 strain of genotype 1b (GENBANK accession AB114136), and NS3h_2a(JFH1) was from the JFH1 strain of HCV genotype 2a (GENBANK accession AJ238799). […] His-tagged recombinant NS3h_1b(con1), NS3h_2a(JFH1), and scNS4A-NS3 (also from genotype 1b(con1)) were expressed, and purified as previously described (Frick, et al. (2010) supra; Lam, et al. (2003) J. Virol. 77:3950-3961). The scNS4A-NS3p (genotype 1b) was from Protein One. A plasmid expressing NS3h from dengue virus strain 2 (NS3h_DV2)(GENBANK accession 2BMF) is known in the art (Xu, et al. (2005) J. Virol. 79:10278-10288), and used to express and purify NS3h_DV2 (Belon, et al. (2010) supra)
Compounds that specifically target less conserved regions of a HCV protein are often not potent inhibitors of the same protein derived from other genotypes, and they might be susceptible to rapid evolution of related viruses. As described herein, primuline derivatives can inhibit HCV helicase isolated from the genotype 1b(con1) strain. Therefore to further analyze specificity, the subset of primuline analogs was tested on the helicase isolated from the genotype 2a(JFH1) strain. The two recombinant proteins differ at 83 of their 480 amino acids. The JHF1 strain is also of interest because it serves as the backbone for HCV strains capable of replicating in cell culture (Wakita, et al. (2005) Nat. Med. 11:791-796). The molecular beacon-based helicase assay (MBHA) (Belon & Frick (2008) supra) was used to measure the ability of each compound to inhibit DNA unwinding catalyzed by NS3h isolated from genotype 2a(JFH1) (NS3h_2a(JFH1)). […] Selected compounds were also tested for the ability to inhibit helicase reactions catalyzed by full-length NS3 and a single chain NS4A-NS3 protein (scNS4A-NS3) described below and used for protease assays.

[1] = biological target: T2, E. coli SSB-Cy5-dT15 complex (Escherichia coli, UniProt P0AGE0); assay: Escherichia coli SSB Cy5-dT15 binding assay (fluorescence polarization); settings: for inhibition at 100 µM: read-out: SSB % Displaced @ 100 μM
T2 construct: purchased Promega
Description: The Escherichia coli SSB assay was performed in a total volume of 20.2 μl in 384-well, flat-bottom, low volume, black microplates (Greiner Bio-One). First, 20 μl of a assay solution (5 nM Cy5-[…]-3′ (Cy5-dT15, SEQ ID NO:5), 20 nM E. coli SSB (Promega), 25 mM MOPS, pH 7.5, 1.25 mM MgCl2, 0.0025 mg/ml BSA, 0.005% (v/v) TWEEN 20 and 0.025 mM DTT) was dispensed in each well, then 0.2 μl of dimethylsulfoxide (DMSO) or compound dissolved in DMSO was added by pin transfer, such that the final concentration of DMSO was 1% (v/v) in each assay.
For IC50 determination, assays were performed with 60 μl total volume in black flat bottomed 384-well microplates (Corning). First, 3.0 μl of DMSO or compound dissolved in DMSO was added, such that the final concentration of DMSO was 5% (v/v) in each assay. Then 57 μl of a assay solution (5 nM Cy5-dT15, 20 nM SSB, 25 mM MOPS, pH 7.5, 1.25 mM MgCl2, 0.0025 mg/ml BSA, 0.005% (v/v) TWEEN 20 and 0.025 mM DTT) was dispensed in each well. Polarization was monitored with a TECAN Infinite M1000 PRO multi-mode microplate reader by exciting at 635 nm (5 nm bandwidth) and measuring total fluorescence intensity, parallel and perpendicular polarized light at 667 nm (20 nm bandwidth).

[2] = genotype 2a (JFH1), read-out: Target Potency MBHA (IC50 avg., μM) 2a (JFH1) (converted)
[3] = disruption of Cy5-dT15-SSB complex, read-out: Cy5-dT15-SSB Binding IC50
[4] = DNA-based MBHA, genotype 2a(JFH1), read-out: DNA Helicase NS3h_2a IC50 (μM) ± SD
[5] = Target Potency MBHA (IC50 avg., μM) 2a (JFH1), genotype 2a (JFH1)

T2 sequence (P0AGE0 2-178, one chain of several): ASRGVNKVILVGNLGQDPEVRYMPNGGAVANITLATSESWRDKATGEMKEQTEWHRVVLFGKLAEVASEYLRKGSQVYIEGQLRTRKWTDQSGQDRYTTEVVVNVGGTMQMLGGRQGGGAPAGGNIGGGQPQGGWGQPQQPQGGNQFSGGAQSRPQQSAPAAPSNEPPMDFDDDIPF
T1 sequence (Q99IB8 1196-1661): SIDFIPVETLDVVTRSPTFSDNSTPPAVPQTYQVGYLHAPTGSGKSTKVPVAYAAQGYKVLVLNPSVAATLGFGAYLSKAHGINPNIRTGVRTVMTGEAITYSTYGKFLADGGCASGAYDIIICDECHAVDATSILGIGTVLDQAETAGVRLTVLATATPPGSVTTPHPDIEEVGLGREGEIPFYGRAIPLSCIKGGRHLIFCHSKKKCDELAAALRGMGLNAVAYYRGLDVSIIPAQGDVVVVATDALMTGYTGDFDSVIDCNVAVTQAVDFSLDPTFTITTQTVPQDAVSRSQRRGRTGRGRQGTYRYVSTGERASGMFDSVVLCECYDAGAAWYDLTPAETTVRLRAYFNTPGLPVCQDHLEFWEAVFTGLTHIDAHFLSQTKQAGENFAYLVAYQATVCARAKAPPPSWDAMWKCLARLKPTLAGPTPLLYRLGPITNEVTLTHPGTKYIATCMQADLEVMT

Structure (SMILES) | IC50 (NS3h_2a(JFH1); [2]) [µM] | inhibition at 100 µM [1] [%] | EC50 ([1]; read-out: SSB EC50) [µM] | IC50 [1, 3] [µM] | IC50 (NS3h_2a(JFH1); [4]) [µM] | EC50 [1] [µM] | IC50 [1] [µM] | IC50 (NS3h_2a(JFH1); [5]) [µM]
Cc1ccc2nc(-c3ccc4nc(-c5ccc(NC(=O)c6ccc7ncoc7c6)cc5)sc4c3)sc2c1S(=O)(=O)O | 6.4 |  |  |  |  |  |  | 
Cc1ccc2nc(-c3ccc4nc(-c5ccc(NS(=O)(=O)c6ccc(C(F)(F)F)cc6)cc5)sc4c3)sc2c1S(=O)(=O)O | 35 |  |  |  |  |  |  | 
Cc1ccc2nc(-c3ccc(NC(=O)c4ccc(C(F)(F)F)cc4)cc3)sc2c1S(=O)(=O)O | > 100 |  |  |  |  |  |  | 
Cc1ccc2nc(-c3ccc(NC(=O)c4ccc(N)cc4)cc3)sc2c1S(=O)(=O)O | 64 |  |  |  |  |  |  | 
Cc1ccc2nc(-c3ccc(NC(=O)c4ccc(NS(=O)(=O)c5ccccc5)cc4)cc3)sc2c1S(=O)(=O)O | > 100 | 61 | > 100 |  |  |  |  | 
Cc1ccc2nc(-c3ccc(NC(=S)Nc4ccccc4Br)cc3)sc2c1 | > 100 |  |  |  |  |  |  | 
Cc1ccc2nc(-c3ccc4nc(NC(=O)c5ccc6ncoc6c5)sc4c3)sc2c1 | 75 ± 32.6 |  |  |  |  |  |  | 
Cc1ccc2nc(-c3ccc4nc(-c5ccc(NC(=O)c6ccccc6)cc5)sc4c3)sc2c1S(=O)(=O)O [Compound 5, 2′-(4-benzamidophenyl)-6-methyl-[2,6′-bibenzo[d]thiazole]-7-sulfonic acid] | 4.6 ± 1.4 | 91 | 4 ± 1 | 4 ± 1 |  |  |  | 
Cc1ccc2nc(-c3ccc4nc(-c5ccc(NC(=O)c6ccc(N)cc6)cc5)sc4c3)sc2c1S(=O)(=O)O [Compound 6, 2′-(4-(4-aminobenzamido)phenyl)-6-methyl-[2,6′-bibenzo[d]thiazole]-7-sulfonic acid] | 5.3 ± 2.5 | 99 | 3 ± 1 | 2 ± 1 | 5 ± 2.5 |  |  | 
Cc1ccc2nc(-c3ccc4nc(-c5ccc(NC(=O)c6ccc(F)cc6)cc5)sc4c3)sc2c1S(=O)(=O)O.N [Compound 7, 2′-(4-(4-fluorobenzamido)phenyl)-6-methyl-[2, bibenzo[d]thiazole]-7-sulfonic acid] | 3 ± 0.8 | 88 | 14 ± 4 | 14 ± 4 | 3 ± 0.8 |  |  | 
COc1ccc(C(=O)Nc2ccc(-c3nc4ccc(-c5nc6ccc(C)c(S(=O)(=O)O)c6s5)cc4s3)cc2)cc1 [Compound 8, 2′-(4-(4-methoxybenzamido)phenyl)-6-methyl-[2,6′-bibenzo[d]thiazole]-7-sulfonic acid] |  | 92 |  |  |  | 2 ± 1 | 2 ± 1 | 5.4 ± 1.4
COC(=O)c1ccc(C(=O)Nc2ccc(-c3nc4ccc(-c5nc6ccc(C)c(S(=O)(=O)O)c6s5)cc4s3)cc2)cc1 [Compound 9, 2′-(4-(4-(methoxycarbonyl)benzamido)phenyl)-6-methyl-[2,6′-bibenzo[d]thiazole]-7-sulfonic acid] | 2.4 ± 0.6 | 91 | 2 ± 0.5 | 1 |  |  |  | 
Cc1ccc2nc(-c3ccc4nc(-c5ccc(NC(=O)c6ccc(Cl)cc6)cc5)sc4c3)sc2c1S(=O)(=O)O [Compound 10, 2′-(4-(4-chlorobenzamido)phenyl)-6-methyl-[2,6′-bibenzo[d]thiazole]-7-sulfonic acid] |  | 80 |  |  |  | 46 ± 52 | 46 ± 52 | 2.3 ± 0.5
Cc1ccc(C(=O)Nc2ccc(-c3nc4ccc(-c5nc6ccc(C)c(S(=O)(=O)O)c6s5)cc4s3)cc2)cc1 [Compound 11, 6-methyl-2′-(4-(4-methylbenzamido)phenyl)-[2,6′-bibenzo[d]thiazole]-7-sulfonic acid] | 2.5 ± 0.5 | 96 | 5 ± 2 | 5 ± 2 |  |  |  | 
Cc1ccc2nc(-c3ccc4nc(-c5ccc(NC(=O)c6ccc(C(F)(F)F)cc6)cc5)sc4c3)sc2c1S(=O)(=O)O [Compound 12, 6-methyl-2′-(4-(4-(trifluoromethyl)benzamido)phenyl)-[2,6′-bibenzo[d]thiazole]-7-sulfonic acid] | 2.5 ± 1 | 80 | 4 ± 2 | 3 | 2 ± 1 |  |  | 
Cc1ccc2nc(-c3ccc4nc(-c5ccc(NC(=O)c6ccc(C(C)(C)C)cc6)cc5)sc4c3)sc2c1S(=O)(=O)O [Compound 13, 2′-(4-(4-(tert-butyl)benzamido)phenyl)-6-methyl-[2,6′-bibenzo[d]thiazole]-7-sulfonic acid] | 5 ± 0.7 | 80 | 32 ± 7 | 32 ± 7 | 5 ± 0.7 |  |  | 
Cc1ccc2nc(-c3ccc4nc(-c5ccc(NC(=O)c6ccc(N(C)C)cc6)cc5)sc4c3)sc2c1S(=O)(=O)O [Compound 14, 2′-(4-(4-(dimethylamino)benzamido)phenyl)-6-methyl-[2,6′-bibenzo[d]thiazole]-7-sulfonic acid] | 6.4 ± 1.2 | 98 | 4 ± 1 | 4 ± 1 |  |  |  | 
Cc1ccc2nc(-c3ccc4nc(-c5ccc(NC(=O)c6ccc(Br)cc6)cc5)sc4c3)sc2c1S(=O)(=O)O [Compound 15, 2′-(4-(4-bromobenzamido)phenyl)-6-methyl-[2,6′-bibenzo[d]thiazole]-7-sulfonic acid] | 7.4 ± 3 | 91 | 27 ± 6 | 27 ± 6 | 7 ± 3.3 |  |  | 
Cc1ccc2nc(-c3ccc4nc(-c5ccc(NC(=O)c6ccc(NC(=O)OCC7c8ccccc8-c8ccccc87)cc6)cc5)sc4c3)sc2c1S(=O)(=O)O [Compound 16, 2′-(4-(4-((((9H-fluoren-9-yl)methoxy)carbonyl)amino)benzamido)phenyl)-6-methyl-[2,6′-bibenzo[d]thiazole]-7-sulfonic acid] | 5.8 ± 3.1 | 53 | > 100 | 179 ± 239 |  |  |  | 
Cc1ccc2nc(-c3ccc4nc(-c5ccc(NC(=O)c6cccc(Cl)c6)cc5)sc4c3)sc2c1S(=O)(=O)O [Compound 17, 2′-(4-(3-chlorobenzamido)phenyl)-6-methyl-[2,6′-bibenzo[d]thiazole]-7-sulfonic acid] | 3.9 ± 1 | 47 | > 100 | 201 ± 119 | 4 ± 0.5 |  |  | 
Cc1ccc2nc(-c3ccc4nc(-c5ccc(NC(=O)c6ccc(Cl)c(Cl)c6)cc5)sc4c3)sc2c1S(=O)(=O)O [Compound 18, 2′-(4-(3,4-dichlorobenzamido)phenyl)-6-methyl-[2,6′-bibenzo[d]thiazole]-7-sulfonic acid] | 4.5 ± 1 | 53 | > 100 | 128 ± 57 |  |  |  | 
Cc1ccc2nc(-c3ccc4nc(-c5ccc6nc(-c7ccc8nc(-c9ccc(N)cc9)sc8c7)sc6c5)sc4c3)sc2c1S(=O)(=O)O [Compound P4, 2′″-(4-aminophenyl)-6-methyl-[2,6′:2″,6′″-quaterbenzo[d]thiazole]-7-sulfonic acid] |  |  |  |  | 1 ± 0.3 |  |  | 
